How the values were obtained:
Format in all cases: cell-based
KRAS G12D = molecular target: T1, KRAS G12D (Homo sapiens, UniProt P01116, G12D); assay: KRAS G12D HiBit assay; settings: AsPc-1-KRAS (G12D)-HiBit-KI cell, compound treatment for 24 hours, absolute DC50
T1 construct: AsPc-1-KRAS (G12D)-HiBit-KI cell (Pharmaron); host or cells: AsPc-1-KRAS (G12D)-HiBit-KI cells (HiBiT knock-in at the endogenous KRAS locus)
In short: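 HiBiT luminescence, detected by adding lytic buffer, substrate and LgBiT protein, served as the KRAS G12D read-out. Compounds, serially diluted 3-fold over 10 points from 0.3 mM DMSO stock, were on cells for 24 h; percent inhibition normalized to cells given 0.1% DMSO only.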

KRAS G12V = molecular target: T2, KRAS G12V (Homo sapiens, UniProt P01116, G12V); assay: KRAS G12V HiBit assay; settings: SW620-KRAS (G12V)-HiBit-KI cells, compound treatment for 24 hours, class symbols
T2 construct: SW620-KRAS (G12V)-HiBit-KI cell (Pharmaron); host or cells: SW620-KRAS (G12V)-HiBit-KI cells (HiBiT knock-in at the endogenous KRAS locus)
In short: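 Luminescence from lytic Nano-Glo HiBiT detection with LgBiT read KRAS G12V levels after 24 h compound exposure. Dilutions were 10-point, 3-fold, from a 0.3 mM DMSO stock. Degradation activity was normalised to cells given 0.1% DMSO alone.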

KRAS = molecular target: T3, KRAS (Homo sapiens, UniProt P01116); assay: KRASamp MSD assay; settings: KE39 (KRAS amplified) cells, treated with test compounds for 24 hr, MSD readout of KRAS degradation
T3 construct: endogenous in cells; host or cells: KE39 (KRAS amplified) cells
In short: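 Degradation DC50 derived by curve fitting, with KRAS levels quantified by MSD electrochemiluminescence (capture/detection antibodies, recombinant WT KRAS standard). Lysates prepared from KE39 cells (KRAS amplified) exposed to test compounds for 24 hr.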

[1] = numeric bounds given in place of class symbols

T1 sequence (P01116 1-188 isoform P01116-2 G12D): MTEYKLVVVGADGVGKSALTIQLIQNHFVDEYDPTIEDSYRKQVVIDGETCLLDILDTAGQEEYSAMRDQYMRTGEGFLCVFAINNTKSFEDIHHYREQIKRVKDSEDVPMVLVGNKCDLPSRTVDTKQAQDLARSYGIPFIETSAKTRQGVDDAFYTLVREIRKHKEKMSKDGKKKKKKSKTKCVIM
T3 sequence (P01116 1-188 isoform P01116-2): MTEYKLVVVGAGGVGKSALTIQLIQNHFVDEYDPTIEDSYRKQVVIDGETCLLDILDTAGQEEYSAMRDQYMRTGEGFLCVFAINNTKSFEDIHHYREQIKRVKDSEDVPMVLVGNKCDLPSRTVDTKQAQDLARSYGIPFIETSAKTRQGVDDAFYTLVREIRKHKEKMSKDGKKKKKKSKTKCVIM
T2 sequence (P01116 1-188 isoform P01116-2 G12V): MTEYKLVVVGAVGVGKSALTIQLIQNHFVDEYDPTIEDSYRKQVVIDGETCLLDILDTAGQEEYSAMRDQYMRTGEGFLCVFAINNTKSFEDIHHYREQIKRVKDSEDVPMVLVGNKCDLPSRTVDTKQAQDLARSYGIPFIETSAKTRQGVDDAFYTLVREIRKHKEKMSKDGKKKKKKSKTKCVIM

SMILES | DC50 (KRAS G12D; class symbols) [nM] | DC50 (KRAS G12V) [nM] | DC50 (KRAS) [nM] | DC50 (KRAS G12D; [1]) [nM]
C#Cc1c(F)ccc2cc(O)cc(-c3ncc4c(N5CCC[C@@](C)(O)C5)nc(OC[C@@]56CCCN5[C@H](COC(=O)N5CCC7(CCC7CN7CCC(c8ccc9c(c8)n(C)c(=O)n9C8CCC(=O)NC8=O)CC7)CC5)CC6)nc4c3F)c12 (stereo partly drawn) [Compound 327, ((3S,7aS)-7a-(((7-(8-ethynyl-7-fluoro-3-hydroxynaphthalen-1-yl)-8-fluoro-4-((R)-3-hydroxy-3-methylpiperidin-1-yl)pyrido[4,3-d]pyrimidin-2-yl)oxy)methyl)hexahydro-1H-pyrrolizin-3-yl)methyl 1-((4-(1-(2,6-dioxopiperidin-3-yl)-3-methyl-2-oxo-2,3-dihydro-1H-benzo[d]imidazol-5-yl)piperidin-1-yl)methyl)-7-azaspiro[3.5]nonane-7-carboxylate] | < 100 | > 100 | ≥ 10 | 
C#Cc1c(F)ccc2cc(O)cc(-c3ncc4c(N5CCC[C@@](C)(O)C5)nc(OC[C@@]56CCCN5[C@H](COC(=O)N5CCCC7(C5)CN(C5CCN(c8ccc9c(c8)n(C)c(=O)n9C8CCC(=O)NC8=O)CC5)C7)CC6)nc4c3F)c12 (stereo partly drawn) [Compound 328, ((3S,7aS)-7a-(((7-(8-ethynyl-7-fluoro-3-hydroxynaphthalen-1-yl)-8-fluoro-4-((R)-3-hydroxy-3-methylpiperidin-1-yl)pyrido[4,3-d]pyrimidin-2-yl)oxy)methyl)hexahydro-1H-pyrrolizin-3-yl)methyl 2-(1-(1-(2,6-dioxopiperidin-3-yl)-3-methyl-2-oxo-2,3-dihydro-1H-benzo[d]imidazol-5-yl)piperidin-4-yl)-2,6-diazaspiro[3.5]nonane-6-carboxylate] |  | > 100 | ≥ 10 | > 100
C#Cc1c(F)ccc2cc(O)cc(-c3ncc4c(N5CCC[C@@](C)(O)C5)nc(OC[C@@]56CCCN5[C@H](COC(=O)N5CCCC7(CN(CC8CCN(c9ccc%10c(c9)n(C)c(=O)n%10C9CCC(=O)NC9=O)CC8)C7)C5)CC6)nc4c3F)c12 (stereo partly drawn) [Compound 329, ((3S,7aS)-7a-(((7-(8-ethynyl-7-fluoro-3-hydroxynaphthalen-1-yl)-8-fluoro-4-((R)-3-hydroxy-3-methylpiperidin-1-yl)pyrido[4,3-d]pyrimidin-2-yl)oxy)methyl)hexahydro-1H-pyrrolizin-3-yl)methyl 2-((1-(1-(2,6-dioxopiperidin-3-yl)-3-methyl-2-oxo-2,3-dihydro-1H-benzo[d]imidazol-5-yl)piperidin-4-yl)methyl)-2,6-diazaspiro[3.5]nonane-6-carboxylate] |  | > 100 | ≥ 10 | > 100
CCc1c(F)ccc2cc(O)cc(-c3ncc4c(N5CCC[C@H](CO)C5)nc(OC[C@@]56CCCN5[C@H](COC(=O)N5CCC(CN7CCC(c8ccc9c(c8)n(C)c(=O)n9C8CCC(=O)NC8=O)CC7)CC5)CC6)nc4c3F)c12 (stereo partly drawn) [Compound 339, ((3S,7aS)-7a-(((7-(8-ethyl-7-fluoro-3-hydroxynaphthalen-1-yl)-8-fluoro-4-((S)-3-(hydroxymethyl)piperidin-1-yl)pyrido[4,3-d]pyrimidin-2-yl)oxy)methyl)hexahydro-1H-pyrrolizin-3-yl)methyl 4-((4-(1-(2,6-dioxopiperidin-3-yl)-3-methyl-2-oxo-2,3-dihydro-1H-benzo[d]imidazol-5-yl)piperidin-1-yl)methyl)piperidine-1-carboxylate] |  | > 100 | 1 to 10 | > 100
CCc1c(F)ccc2cc(O)cc(-c3ncc4c(N5CCCCCC5)nc(OC[C@@]56CCCN5[C@H](COC(=O)N5CCC7(CC5)CC(N5CCC(c8ccc9c(c8)n(C)c(=O)n9C8CCC(=O)NC8=O)CC5)C7)CC6)nc4c3F)c12 (stereo partly drawn) [Compound 344, ((3S,7aS)-7a-(((4-(azepan-1-yl)-7-(8-ethyl-7-fluoro-3-hydroxynaphthalen-1-yl)-8-fluoropyrido[4,3-d]pyrimidin-2-yl)oxy)methyl)hexahydro-1H-pyrrolizin-3-yl)methyl 2-(4-(1-(2,6-dioxopiperidin-3-yl)-3-methyl-2-oxo-2,3-dihydro-1H-benzo[d]imidazol-5-yl)piperidin-1-yl)-7-azaspiro[3.5]nonane-7-carboxylate] |  | > 100 | 1 to 10 | > 100
CCc1c(F)ccc2cc(O)cc(-c3ncc4c(N5CCN6CCCC6C5)nc(OC[C@@]56CCCN5[C@H](COC(=O)N5CCC7(CC5)CC(N5CCC(c8ccc9c(c8)n(C)c(=O)n9C8CCC(=O)NC8=O)CC5)C7)CC6)nc4c3F)c12 (stereo partly drawn) [Compound 345, ((3S,7aS)-7a-(((7-(8-ethyl-7-fluoro-3-hydroxynaphthalen-1-yl)-8-fluoro-4-(hexahydropyrrolo[1,2-a]pyrazin-2(1H)-yl)pyrido[4,3-d]pyrimidin-2-yl)oxy)methyl)hexahydro-1H-pyrrolizin-3-yl)methyl 2-(4-(1-(2,6-dioxopiperidin-3-yl)-3-methyl-2-oxo-2,3-dihydro-1H-benzo[d]imidazol-5-yl)piperidin-1-yl)-7-azaspiro[3.5]nonane-7-carboxylate] |  | > 100 | 1 to 10 | > 100

Next, values leading:

DC50 (KRAS G12D; class symbols) [nM] | DC50 (KRAS G12V) [nM] | DC50 (KRAS) [nM] | DC50 (KRAS G12D; [1]) [nM] | SMILES
 | > 100 | 1 to 10 | > 100 | CCc1c(F)ccc2cc(O)cc(-c3ncc4c(N5CCC[C@@](C)(O)C5)nc(OC[C@]56CCCN5[C@H](COC(=O)N5CCC(Oc7ccc8c(c7)n(C)c(=O)n8C7CCC(=O)NC7=O)CC5)CC6)nc4c3F)c12 (stereo partly drawn) [Compound 330, ((3S,7aR)-7a-(((7-(8-ethyl-7-fluoro-3-hydroxynaphthalen-1-yl)-8-fluoro-4-((R)-3-hydroxy-3-methylpiperidin-1-yl)pyrido[4,3-d]pyrimidin-2-yl)oxy)methyl)hexahydro-1H-pyrrolizin-3-yl)methyl 4-((1-(2,6-dioxopiperidin-3-yl)-3-methyl-2-oxo-2,3-dihydro-1H-benzo[d]imidazol-5-yl)oxy)piperidine-1-carboxylate]
< 100 | 10 to 100 | 1 to 10 |  | CCc1c(F)ccc2cc(O)cc(-c3ncc4c(N5CCC[C@@](C)(O)C5)nc(OC[C@]56CCCN5[C@H](COC(=O)N5CCC(N7CCC(c8ccc9c(c8)n(C)c(=O)n9C8CCC(=O)NC8=O)C7)CC5)CC6)nc4c3F)c12 (stereo partly drawn) [Compound 337, ((3S,7aR)-7a-(((7-(8-ethyl-7-fluoro-3-hydroxynaphthalen-1-yl)-8-fluoro-4-((R)-3-hydroxy-3-methylpiperidin-1-yl)pyrido[4,3-d]pyrimidin-2-yl)oxy)methyl)hexahydro-1H-pyrrolizin-3-yl)methyl 4-(3-(1-(2,6-dioxopiperidin-3-yl)-3-methyl-2-oxo-2,3-dihydro-1H-benzo[d]imidazol-5-yl)pyrrolidin-1-yl)piperidine-1-carboxylate]
< 100 | < 10 | < 1 |  | CCc1c(F)ccc2cc(O)cc(-c3ncc4c(N5CCC[C@@H](CO)C5)nc(OC[C@@]56CCCN5[C@H](COC(=O)N5CCC(CN7CCC(c8ccc9c(c8)n(C)c(=O)n9C8CCC(=O)NC8=O)CC7)CC5)CC6)nc4c3F)c12 (stereo partly drawn) [Compound 340, ((3S,7aS)-7a-(((7-(8-ethyl-7-fluoro-3-hydroxynaphthalen-1-yl)-8-fluoro-4-((R)-3-(hydroxymethyl)piperidin-1-yl)pyrido[4,3-d]pyrimidin-2-yl)oxy)methyl)hexahydro-1H-pyrrolizin-3-yl)methyl 4-((4-(1-(2,6-dioxopiperidin-3-yl)-3-methyl-2-oxo-2,3-dihydro-1H-benzo[d]imidazol-5-yl)piperidin-1-yl)methyl)piperidine-1-carboxylate]
 | > 100 | ≥ 10 | > 100 | CCc1c(F)ccc2cc(O)cc(-c3ncc4c(N5CCCC(C)(CO)C5)nc(OC[C@@]56CCCN5[C@H](COC(=O)N5CCC(CN7CCC(c8ccc9c(c8)n(C)c(=O)n9C8CCC(=O)NC8=O)CC7)CC5)CC6)nc4c3F)c12 (stereo partly drawn) [Compound 341, ((3S,7aS)-7a-(((7-(8-ethyl-7-fluoro-3-hydroxynaphthalen-1-yl)-8-fluoro-4-(3-(hydroxymethyl)-3-methylpiperidin-1-yl)pyrido[4,3-d]pyrimidin-2-yl)oxy)methyl)hexahydro-1H-pyrrolizin-3-yl)methyl 4-((4-(1-(2,6-dioxopiperidin-3-yl)-3-methyl-2-oxo-2,3-dihydro-1H-benzo[d]imidazol-5-yl)piperidin-1-yl)methyl)piperidine-1-carboxylate]
< 100 | 10 to 100 | 1 to 10 |  | CCc1c(F)ccc2cc(O)cc(-c3ncc4c(N5CC6CC6C5)nc(OC[C@@]56CCCN5[C@H](COC(=O)N5CCC7(CC5)CC(N5CCC(c8ccc9c(c8)n(C)c(=O)n9C8CCC(=O)NC8=O)CC5)C7)CC6)nc4c3F)c12 (stereo partly drawn) [Compound 346, ((3S,7aS)-7a-(((4-(3-azabicyclo[3.1.0]hexan-3-yl)-7-(8-ethyl-7-fluoro-3-hydroxynaphthalen-1-yl)-8-fluoropyrido[4,3-d]pyrimidin-2-yl)oxy)methyl)hexahydro-1H-pyrrolizin-3-yl)methyl 2-(4-(1-(2,6-dioxopiperidin-3-yl)-3-methyl-2-oxo-2,3-dihydro-1H-benzo[d]imidazol-5-yl)piperidin-1-yl)-7-azaspiro[3.5]nonane-7-carboxylate]

— US12599672B2, “KRAS proteolysis targeting chimeras” (PAQ Therapeutics Inc., priority 2023, dated 2026)
